Test results taken from patent US11730720B2, “ALK5 inhibitors” (THERAVANCE BIOPHARMA R&D IP, LLC, priority 2018, dated 2023).

What was measured:
[1] = target: T1, recombinant human ALK5 (TGF-βR1) protein (Homo sapiens, UniProt P36897); assay: Biochemical ALK5 (TGF-βR1) assay to measure pKi (LANCE Ultra ULight kinase assay); settings: apparent pKi, converted from pIC50 using the Cheng-Prusoff equation
T1 construct: purchased Life Technologies PR9075A
T1 sequence (P36897 34-503): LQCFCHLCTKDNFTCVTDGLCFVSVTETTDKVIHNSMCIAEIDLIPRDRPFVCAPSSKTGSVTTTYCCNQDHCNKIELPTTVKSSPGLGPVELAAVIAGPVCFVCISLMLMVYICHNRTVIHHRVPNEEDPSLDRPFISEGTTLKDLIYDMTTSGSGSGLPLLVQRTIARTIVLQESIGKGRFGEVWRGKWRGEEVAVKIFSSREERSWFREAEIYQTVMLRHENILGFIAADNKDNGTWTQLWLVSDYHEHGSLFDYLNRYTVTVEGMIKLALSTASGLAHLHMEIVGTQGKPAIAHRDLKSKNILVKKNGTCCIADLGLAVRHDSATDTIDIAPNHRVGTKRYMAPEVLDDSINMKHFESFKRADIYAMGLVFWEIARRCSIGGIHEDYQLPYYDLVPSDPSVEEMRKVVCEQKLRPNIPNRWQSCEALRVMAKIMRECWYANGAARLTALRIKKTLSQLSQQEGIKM
Outline: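 TR-FRET kinase format: compound dose range 10 μM–25 pM equilibrated 60 min with human ALK5 and ULight-labelled topoisomerase 2α peptide in HEPES/MgCl2 buffer pH 7.5 with DTT. Reaction started with ATP (125 μM stock, 5× final), 60 min at 37° C, stopped with EDTA/Eu-anti-phospho antibody; pKi derived from pIC50 via Cheng-Prusoff.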

[2] = test system: TGF-β-stimulated SMAD3 phosphorylation in BEAS-2B cells; assay: Cellular ALK5 potency assay, inhibition of TGF-β stimulated pSMAD3 formation in BEAS-2B cells; assay type: cell-based; settings: Homo sapiens, inhibition of TGF-β (10 ng/mL) stimulated pSMAD3 formation, 1 hour compound incubation, read-out: BEAS2B pIC50 (converted)
Outline: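 Phospho-SMAD3 was quantified by AlphaLISA in lysates of human lung epithelial BEAS-2B cells. Compound was added 1 h (37 °C, HEPES/BSA-supplemented HBSS) before a 30 min challenge with 10 ng/mL TGF-β. Values are pIC50 relative to stimulated cells without compound.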

Row | Ki [1] | Compound | IC50 [2]
1 | 0.0398 to 0.316 nM | CNC(=O)[C@@H]1CN(c2cnc3ccc(-c4c[nH]nc4-c4cc(Cl)ccc4F)nc3c2)CCN1 [Compound 1-58, (2S)-4-[6-[3-(5-chloro-2-fluoro-phenyl)-1H-pyrazol-4-yl]-1,5-naphthyridin-3-yl]-N-methyl-piperazine-2-carboxamide] | 25.1 to 158 nM
2 | 0.398 to 3.16 nM | COC(=O)[C@@H]1CN(c2cnc3ccc(-c4c[nH]nc4-c4cc(Cl)ccc4F)nc3c2)CCN1 [Compound 1-59, methyl (2S)-4-[6-[3-(5-chloro-2-fluoro-phenyl)-1H-pyrazol-4-yl]-1,5-naphthyridin-3-yl]piperazine-2-carboxylate] | 25.1 to 158 nM
3 | 0.0398 to 0.316 nM | CNC1CCN(c2cnc3ccc(-c4c[nH]nc4-c4cc(Cl)ccc4F)nc3c2)CC1 [Compound 1-60, 1-[6-[3-(5-chloro-2-fluoro-phenyl)-1H-pyrazol-4-yl]-1,5-naphthyridin-3-yl]-N-methyl-piperidin-4-amine] | 25.1 to 158 nM
4 | 0.398 to 3.16 nM | CN(C)C(=O)[C@H]1CN(c2cnc3ccc(-c4c[nH]nc4-c4cc(Cl)ccc4F)nc3c2)CCN1 [Compound 1-61, (2R)-4-[6-[3-(5-chloro-2-fluoro-phenyl)-1H-pyrazol-4-yl]-1,5-naphthyridin-3-yl]-N,N-dimethyl-piperazine-2-carboxamide] | 25.1 to 158 nM
5 | 0.398 to 3.16 nM | COC(=O)[C@H]1CN(c2cnc3ccc(-c4c[nH]nc4-c4cc(Cl)ccc4F)nc3c2)CCN1 [Compound 1-62, methyl (2R)-4-[6-[3-(5-chloro-2-fluoro-phenyl)-1H-pyrazol-4-yl]-1,5-naphthyridin-3-yl]piperazine-2-carboxylate] | 25.1 to 158 nM
6 | 0.398 to 3.16 nM | Fc1ccc(Cl)cc1-c1n[nH]cc1-c1ccc2ncc(N3CCCNCC3)cc2n1 [Compound 1-63, 2-[3-(5-chloro-2-fluoro-phenyl)-1H-pyrazol-4-yl]-7-(1,4-diazepan-1-yl)-1,5-naphthyridine] | 25.1 to 158 nM
7 | 0.0398 to 0.316 nM | Fc1ccc(Cl)cc1-c1n[nH]cc1-c1ccc2ncc(N3CC4CNC4C3)cc2n1 (stereo not shown) [Compound 1-64, 2-[3-(5-chloro-2-fluoro-phenyl)-1H-pyrazol-4-yl]-7-(3,6-diazabicyclo[3.2.0]heptan-3-yl)-1,5-naphthyridine] | ≤ 20 nM
8 | 0.398 to 3.16 nM | COC(=O)[C@H]1CN(c2cnc3ccc(-c4c[nH]nc4-c4cc(Cl)ccc4F)nc3c2)CCN1C [Compound 1-65, methyl (2R)-4-[6-[3-(5-chloro-2-fluoro-phenyl)-1H-pyrazol-4-yl]-1,5-naphthyridin-3-yl]-1-methyl-piperazine-2-carboxylate] | 25.1 to 158 nM
9 | 0.398 to 3.16 nM | CC(C)NC(=O)[C@H]1CN(c2cnc3ccc(-c4c[nH]nc4-c4cc(Cl)ccc4F)nc3c2)CCN1 [Compound 1-66, (R)-4-(6-(3-(5-Chloro-2-fluorophenyl)-1H-pyrazol-4-yl)-1,5-naphthyridin-3-yl)-N-isopropylpiperazine-2-carboxamide] | 25.1 to 158 nM
10 | 0.398 to 3.16 nM | O=C(NCc1ccccc1)[C@H]1CN(c2cnc3ccc(-c4c[nH]nc4-c4cc(Cl)ccc4F)nc3c2)CCN1 [Compound 1-67, (2R)-N-benzyl-4-[6-[3-(5-chloro-2-fluoro-phenyl)-1H-pyrazol-4-yl]-1,5-naphthyridin-3-yl]piperazine-2-carboxamide] | 25.1 to 158 nM
11 | 0.398 to 3.16 nM | CC(C)OC(=O)[C@H]1CN(c2cnc3ccc(-c4c[nH]nc4-c4cc(Cl)ccc4F)nc3c2)CCN1 [Compound 1-68, isopropyl (2R)-4-[6-[3-(5-chloro-2-fluoro-phenyl)-1H-pyrazol-4-yl]-1,5-naphthyridin-3-yl]piperazine-2-carboxylate] | 25.1 to 158 nM
12 | 0.0398 to 0.316 nM | CC(C)N1CC2CN(c3cnc4ccc(-c5c[nH]nc5-c5cc(Cl)ccc5F)nc4c3)CC21 (stereo not shown) [Compound 1-70, 2-(3-(5-chloro-2-fluorophenyl)-112-pyrazol-4-yl)-7-(6-isopropyl-3,6-diazabicyclo[3.2.0]heptan-3-yl)-1,5-naphthyridine] | 25.1 to 158 nM
13 | ≤ 0.0316 nM | CN(C)CCN1CCN(c2cnc3ccc(-c4c[nH]nc4-c4cc(Cl)ccc4F)nc3c2)CC1 [Compound 1-71, 2-[4-[6-[3-(5-chloro-2-fluoro-phenyl)-1H-pyrazol-4-yl]-1,5-naphthyridin-3-yl]piperazin-1-yl]-N,N-dimethyl-ethanamine] | ≤ 20 nM
14 | 0.398 to 3.16 nM | CN1CC2CN(c3cnc4ccc(-c5c[nH]nc5-c5cc(Cl)ccc5F)nc4c3)C2C1 (stereo not shown) [Compound 1-72, 2-[3-(5-chloro-2-fluoro-phenyl)-1H-pyrazol-4-yl]-7-(3-methyl-3,6-diazabicyclo[3.2.0]heptan-6-yl)-1,5-naphthyridine] | 25.1 to 158 nM
15 | 3.98 to 31.6 nM | CC(C)N1CC2CN(c3cnc4ccc(-c5c[nH]nc5-c5cc(Cl)ccc5F)nc4c3)C2C1 (stereo not shown) [Compound 1-73, 2-[3-(5-chloro-2-fluoro-phenyl)-1H-pyrazol-4-yl]-7-(3-isopropyl-3,6-diazabicyclo[3.2.0]heptan-6-yl)-1,5-naphthyridine] | 25.1 to 158 nM
16 | 0.398 to 3.16 nM | CN1CC2CN(c3cnc4ccc(-c5c[nH]nc5-c5cc(Cl)ccc5F)nc4c3)CC21 (stereo not shown) [Compound 1-74, 2-[3-(5-chloro-2-fluoro-phenyl)-1H-pyrazol-4-yl]-7-(6-methyl-3,6-diazabicyclo[3.2.0]heptan-3-yl)-1,5-naphthyridine] | 25.1 to 158 nM
17 | ≤ 0.0316 nM | CC(C)NCCN1CCN(c2cnc3ccc(-c4c[nH]nc4-c4cc(Cl)ccc4F)nc3c2)CC1 [Compound 1-76, N-[2-[4-[6-[3-(5-chloro-2-fluoro-phenyl)-1H-pyrazol-4-yl]-1,5-naphthyridin-3-yl]piperazin-1-yl]ethyl]propan-2-amine] | 25.1 to 158 nM
18 | ≤ 0.0316 nM | CN1CCN(C2CCN(c3cnc4ccc(-c5c[nH]nc5-c5cc(Cl)ccc5F)nc4c3)CC2)CC1 [Compound 1-83, 2-[3-(5-chloro-2-fluoro-phenyl)-1H-pyrazol-4-yl]-7-[4-(4-methylpiperazin-1-yl)-1-piperidyl]-1,5-naphthyridine] | ≤ 20 nM
19 | ≤ 0.0316 nM | Fc1ccc(Cl)cc1-c1n[nH]cc1-c1ccc2ncc(N3CCn4nc(C5=CCNC5)nc4C3)cc2n1 [Compound 1-85, 2-(3-(5-chloro-2-fluorophenyl)-1H-pyrazol-4-yl)-7-(2-(2,5-dihydro-1H-pyrrol-3-yl)-5,6-dihydro-[1,2,4]triazolo[1,5-a]pyrazin-7(8H)-yl)-1,5-naphthyridine] | 25.1 to 158 nM
20 | ≤ 0.0316 nM | CN1CC=C(c2nc3n(n2)CCN(c2cnc4ccc(-c5c[nH]nc5-c5cc(Cl)ccc5F)nc4c2)C3)C1 [Compound 1-86, 2-(3-(5-chloro-2-fluorophenyl)-1H-pyrazol-4-yl)-7-(2-(1-methyl-2,5-dihydro-1H-pyrrol-3-yl)-5,6-dihydro-[1,2,4]triazolo[1,5-a]pyrazin-7(8H)-yl)-1,5-naphthyridine] | 25.1 to 158 nM
21 | ≤ 0.0316 nM | CNCCn1cc(-c2cnc3ccc(-c4c[nH]nc4-c4cc(Cl)ccc4F)nc3c2)cn1 [Compound 1-87, 2-(4-(6-(3-(5-chloro-2-fluorophenyl)-1H-pyrazol-4-yl)-1,5-naphthyridin-3-yl)-1H-pyrazol-1-yl)-N-methylethan-1-amine] | ≤ 20 nM
22 | 0.0398 to 0.316 nM | Fc1ccc(Cl)cc1-c1n[nH]cc1-c1ccc2ncc(-c3cnn(CC4CNC4)c3)cc2n1 [Compound 1-88, 7-[1-(azetidin-3-ylmethyl)pyrazol-4-yl]-2-[3-(5-chloro-2-fluoro-phenyl)-1H-pyrazol-4-yl]-1,5-naphthyridine] | 25.1 to 158 nM
23 | ≤ 0.0316 nM | NCCn1cc(-c2cnc3ccc(-c4c[nH]nc4-c4cc(Cl)ccc4F)nc3c2)cn1 [Compound 1-89, 2-[4-[6-[3-(5-chloro-2-fluoro-phenyl)-1H-pyrazol-4-yl]-1,5-naphthyridin-3-yl]pyrazol-1-yl]ethanamine] | 25.1 to 158 nM
24 | 0.0398 to 0.316 nM | Cn1cccc(-c2cnc3ccc(-c4c[nH]nc4-c4cc(Cl)ccc4F)nc3c2)c1=O [Compound 1-90, 3-(6-(3-(5-chloro-2-fluorophenyl)-112-pyrazol-4-yl)-1,5-naphthyridin-3-yl)-1-methylpyridin-2(1H)-one] | ≤ 20 nM
25 | 0.0398 to 0.316 nM | NC1CC=C(c2cnc3ccc(-c4c[nH]nc4-c4cc(Cl)ccc4F)nc3c2)CC1 (stereo not shown) [Compound 1-91, 4-(6-(3-(5-chloro-2-fluorophenyl)-1H-pyrazol-4-yl)-1,5-naphthyridin-3-yl)cyclohex-3-en-1-amine] | ≤ 20 nM
26 | 0.0398 to 0.316 nM | CNCCn1ccc(-c2cnc3ccc(-c4c[nH]nc4-c4cc(Cl)ccc4F)nc3c2)n1 [Compound 1-92, 2-[3-[6-[3-(5-chloro-2-fluoro-phenyl)-1H-pyrazol-4-yl]-1,5-naphthyridin-3-yl]pyrazol-1-yl]-N-methyl-ethanamine] | ≤ 20 nM
